Results reported in ChEMBL document CHEMBL4017512 (J Med Chem, 2017).

Experiments:
HCT-116 = test: Antiproliferative activity against human HCT116 cells after 72 hrs by phosphatase assay; format: functional, cell-based; details: HCT-116, 72 h
[1] = Cytotoxicity against human HCT116/VM46 cells assessed as reduction in cell viability after 72 hrs by phosphatase assay; format: cell-based; details: HCT-116/VM46, 72 h
L1210 = test: Antiproliferative activity against mouse L1210 cells after 72 hrs by phosphatase assay; format: functional, cell-based; details: L1210, 72 h

| Structure (SMILES) | IC50 (HCT-116) | IC50 [1] | IC50 (L1210) |
| --- | --- | --- | --- |
| CC[C@]1(NC(=O)c2ccc(C(C)(C)C)cc2)C[C@H]2CN(CCc3c([nH]c4ccccc34)[C@@](C(=O)OC)(c3cc4c(cc3OC)N(C)[C@H]3[C@@](O)(C(=O)OC)[C@H](OC(C)=O)[C@]5(CC)C=CCN6CC[C@]43[C@@H]65)C2)C1 | 1.9 nM | 55 nM | 0.6 nM |
| CC[C@]1(NC(=O)c2ccc3c(c2)OCO3)C[C@H]2CN(CCc3c([nH]c4ccccc34)[C@@](C(=O)OC)(c3cc4c(cc3OC)N(C)[C@H]3[C@@](O)(C(=O)OC)[C@H](OC(C)=O)[C@]5(CC)C=CCN6CC[C@]43[C@@H]65)C2)C1 | 0.8 nM | 8.7 nM | 0.6 nM |
| CC[C@]1(NC(=O)c2nc3ccccc3s2)C[C@H]2CN(CCc3c([nH]c4ccccc34)[C@@](C(=O)OC)(c3cc4c(cc3OC)N(C)[C@H]3[C@@](O)(C(=O)OC)[C@H](OC(C)=O)[C@]5(CC)C=CCN6CC[C@]43[C@@H]65)C2)C1 | 80 nM | 470 nM | 180 nM |
| CC[C@]1(NC(=O)C2CCc3ccccc3C2)C[C@H]2CN(CCc3c([nH]c4ccccc34)[C@@](C(=O)OC)(c3cc4c(cc3OC)N(C)[C@H]3[C@@](O)(C(=O)OC)[C@H](OC(C)=O)[C@]5(CC)C=CCN6CC[C@]43[C@@H]65)C2)C1 (some centres not stated) | 580 nM | 960 nM | 420 nM |
| CCOc1ccc(C(=O)N[C@@]2(CC)C[C@H]3CN(CCc4c([nH]c5ccccc45)[C@@](C(=O)OC)(c4cc5c(cc4OC)N(C)[C@H]4[C@@](O)(C(=O)OC)[C@H](OC(C)=O)[C@]6(CC)C=CCN7CC[C@]54[C@@H]76)C3)C2)cc1Br | 6.2 nM | 50 nM | 3.9 nM |
| CC[C@]1(NC(=O)c2ccc(C(F)(F)F)cc2)C[C@H]2CN(CCc3c([nH]c4ccccc34)[C@@](C(=O)OC)(c3cc4c(cc3OC)N(C)[C@H]3[C@@](O)(C(=O)OC)[C@H](OC(C)=O)[C@]5(CC)C=CCN6CC[C@]43[C@@H]65)C2)C1 | 3.3 nM | 55 nM | 4.3 nM |
| CC[C@]1(NS(=O)(=O)c2ccc(OC)cc2)C[C@H]2CN(CCc3c([nH]c4ccccc34)[C@@](C(=O)OC)(c3cc4c(cc3OC)N(C)[C@H]3[C@@](O)(C(=O)OC)[C@H](OC(C)=O)[C@]5(CC)C=CCN6CC[C@]43[C@@H]65)C2)C1 | 30 nM | 240 nM | 35 nM |
| CC[C@]1(NC(=O)C2CCN(C(=O)OC(C)(C)C)CC2)C[C@H]2CN(CCc3c([nH]c4ccccc34)[C@@](C(=O)OC)(c3cc4c(cc3OC)N(C)[C@H]3[C@@](O)(C(=O)OC)[C@H](OC(C)=O)[C@]5(CC)C=CCN6CC[C@]43[C@@H]65)C2)C1 | 45 nM | 500 nM | 50 nM |
| CC[C@]1(NC(=O)C2CCOCC2)C[C@H]2CN(CCc3c([nH]c4ccccc34)[C@@](C(=O)OC)(c3cc4c(cc3OC)N(C)[C@H]3[C@@](O)(C(=O)OC)[C@H](OC(C)=O)[C@]5(CC)C=CCN6CC[C@]43[C@@H]65)C2)C1 | 35 nM | 3500 nM | 70 nM |
| CC[C@]1(NC(=O)c2ccc3c(c2)CCCC3)C[C@H]2CN(CCc3c([nH]c4ccc(F)cc34)[C@@](C(=O)OC)(c3cc4c(cc3OC)N(C)[C@H]3[C@@](O)(C(=O)OC)[C@H](OC(C)=O)[C@]5(CC)C=CCN6CC[C@]43[C@@H]65)C2)C1 | 6.2 nM | 19 nM | 5 nM |
| CC[C@]1(NC(=O)c2ccc(OC(F)(F)F)cc2)C[C@H]2CN(CCc3c([nH]c4ccccc34)[C@@](C(=O)OC)(c3cc4c(cc3OC)N(C)[C@H]3[C@@](O)(C(=O)OC)[C@H](OC(C)=O)[C@]5(CC)C=CCN6CC[C@]43[C@@H]65)C2)C1 | 4.4 nM | 8.4 nM | 5.9 nM |
| CC[C@]1(NC(=O)/C=C/c2ccco2)C[C@H]2CN(CCc3c([nH]c4ccccc34)[C@@](C(=O)OC)(c3cc4c(cc3OC)N(C)[C@H]3[C@@](O)(C(=O)OC)[C@H](OC(C)=O)[C@]5(CC)C=CCN6CC[C@]43[C@@H]65)C2)C1 | 1.3 nM | 30 nM | 1.3 nM |
| CC[C@]1(NC(=O)c2ccc(OC)c(F)c2)C[C@H]2CN(CCc3c([nH]c4ccccc34)[C@@](C(=O)OC)(c3cc4c(cc3OC)N(C)[C@H]3[C@@](O)(C(=O)OC)[C@H](OC(C)=O)[C@]5(CC)C=CCN6CC[C@]43[C@@H]65)C2)C1 | 0.6 nM | 30 nM | 0.6 nM |
| CC[C@]1(NC(=O)c2ccccn2)C[C@H]2CN(CCc3c([nH]c4ccccc34)[C@@](C(=O)OC)(c3cc4c(cc3OC)N(C)[C@H]3[C@@](O)(C(=O)OC)[C@H](OC(C)=O)[C@]5(CC)C=CCN6CC[C@]43[C@@H]65)C2)C1 | 50 nM | 460 nM | 55 nM |
| CC[C@]1(NC(=O)c2ccccc2C(F)(F)F)C[C@H]2CN(CCc3c([nH]c4ccccc34)[C@@](C(=O)OC)(c3cc4c(cc3OC)N(C)[C@H]3[C@@](O)(C(=O)OC)[C@H](OC(C)=O)[C@]5(CC)C=CCN6CC[C@]43[C@@H]65)C2)C1 | 60 nM | 540 nM | 45 nM |
| CC[C@]1(NC(=O)c2ccc(OC)c(Br)c2)C[C@H]2CN(CCc3c([nH]c4ccccc34)[C@@](C(=O)OC)(c3cc4c(cc3OC)N(C)[C@H]3[C@@](O)(C(=O)OC)[C@H](OC(C)=O)[C@]5(CC)C=CCN6CC[C@]43[C@@H]65)C2)C1 | 6.2 nM | 40 nM | 5.1 nM |
| CCC(C)c1ccc(C(=O)N[C@@]2(CC)C[C@H]3CN(CCc4c([nH]c5ccccc45)[C@@](C(=O)OC)(c4cc5c(cc4OC)N(C)[C@H]4[C@@](O)(C(=O)OC)[C@H](OC(C)=O)[C@]6(CC)C=CCN7CC[C@]54[C@@H]76)C3)C2)cc1 (some centres not stated) | 15 nM | 65 nM | 25 nM |
| CC[C@]1(NC(=O)c2ccc(Cl)cc2)C[C@H]2CN(CCc3c([nH]c4ccccc34)[C@@](C(=O)OC)(c3cc4c(cc3OC)N(C)[C@H]3[C@@](O)(C(=O)OC)[C@H](OC(C)=O)[C@]5(CC)C=CCN6CC[C@]43[C@@H]65)C2)C1 | 3.2 nM | 50 nM | 3.1 nM |
| CC[C@]1(NC(=O)c2cc(OC)c(OC)c(OC)c2)C[C@H]2CN(CCc3c([nH]c4ccccc34)[C@@](C(=O)OC)(c3cc4c(cc3OC)N(C)[C@H]3[C@@](O)(C(=O)OC)[C@H](OC(C)=O)[C@]5(CC)C=CCN6CC[C@]43[C@@H]65)C2)C1 | 0.1 nM | 2.4 nM | 0.09 nM |
| CC[C@]1(O)C[C@H]2CN(CCc3c([nH]c4ccc(F)cc34)[C@@](C(=O)OC)(c3cc4c(cc3OC)N(C)[C@H]3[C@@](O)(C(=O)OC)[C@H](OC(C)=O)[C@]5(CC)C=CCN6CC[C@]43[C@@H]65)C2)C1 | 0.7 nM | 30 nM | 0.6 nM |
| CC[C@]1(NC(=O)c2ccc(S(=O)(=O)F)cc2)C[C@H]2CN(CCc3c([nH]c4ccccc34)[C@@](C(=O)OC)(c3cc4c(cc3OC)N(C)[C@H]3[C@@](O)(C(=O)OC)[C@H](OC(C)=O)[C@]5(CC)C=CCN6CC[C@]43[C@@H]65)C2)C1 | 30 nM | 310 nM | 20 nM |
| CC[C@]1(NC(=O)c2ccc(N)c(C)c2)C[C@H]2CN(CCc3c([nH]c4ccccc34)[C@@](C(=O)OC)(c3cc4c(cc3OC)N(C)[C@H]3[C@@](O)(C(=O)OC)[C@H](OC(C)=O)[C@]5(CC)C=CCN6CC[C@]43[C@@H]65)C2)C1 | 0.6 nM | 7.8 nM | 0.6 nM |
| CC[C@]1(NC(=O)c2ccc3occc3c2)C[C@H]2CN(CCc3c([nH]c4ccccc34)[C@@](C(=O)OC)(c3cc4c(cc3OC)N(C)[C@H]3[C@@](O)(C(=O)OC)[C@H](OC(C)=O)[C@]5(CC)C=CCN6CC[C@]43[C@@H]65)C2)C1 | 3.8 nM | 25 nM | 5 nM |
| CC[C@]1(NC(=O)c2ccc3sccc3c2)C[C@H]2CN(CCc3c([nH]c4ccccc34)[C@@](C(=O)OC)(c3cc4c(cc3OC)N(C)[C@H]3[C@@](O)(C(=O)OC)[C@H](OC(C)=O)[C@]5(CC)C=CCN6CC[C@]43[C@@H]65)C2)C1 | 4.9 nM | 16 nM | 4.2 nM |
| CC[C@]1(NC(=O)c2ccc3ncccc3c2)C[C@H]2CN(CCc3c([nH]c4ccccc34)[C@@](C(=O)OC)(c3cc4c(cc3OC)N(C)[C@H]3[C@@](O)(C(=O)OC)[C@H](OC(C)=O)[C@]5(CC)C=CCN6CC[C@]43[C@@H]65)C2)C1 | 0.6 nM | 4.9 nM | 0.6 nM |
| C=CC(=O)N[C@@]1(CC)C[C@H]2CN(CCc3c([nH]c4ccccc34)[C@@](C(=O)OC)(c3cc4c(cc3OC)N(C)[C@H]3[C@@](O)(C(=O)OC)[C@H](OC(C)=O)[C@]5(CC)C=CCN6CC[C@]43[C@@H]65)C2)C1 | 6 nM | 520 nM | 7 nM |
| CC[C@]1(NC(=O)/C=C/c2ccoc2)C[C@H]2CN(CCc3c([nH]c4ccccc34)[C@@](C(=O)OC)(c3cc4c(cc3OC)N(C)[C@H]3[C@@](O)(C(=O)OC)[C@H](OC(C)=O)[C@]5(CC)C=CCN6CC[C@]43[C@@H]65)C2)C1 | 0.7 nM | 20 nM | 0.7 nM |
| CC[C@]1(NC(=O)c2ccnnc2)C[C@H]2CN(CCc3c([nH]c4ccccc34)[C@@](C(=O)OC)(c3cc4c(cc3OC)N(C)[C@H]3[C@@](O)(C(=O)OC)[C@H](OC(C)=O)[C@]5(CC)C=CCN6CC[C@]43[C@@H]65)C2)C1 | 9 nM | 700 nM | 30 nM |
| CC[C@]1(NC(=O)c2cccc(C(C)C)c2)C[C@H]2CN(CCc3c([nH]c4ccccc34)[C@@](C(=O)OC)(c3cc4c(cc3OC)N(C)[C@H]3[C@@](O)(C(=O)OC)[C@H](OC(C)=O)[C@]5(CC)C=CCN6CC[C@]43[C@@H]65)C2)C1 | 8.7 nM | 65 nM | 7.5 nM |
